In brackets after ≈: the same amount, converted by molar mass.
Legend:
Cryptococcus neoformans = experiment: Minimum inhibitory concentration required for antifungal activity against Cryptococcus neoformans (271A); assay type: functional
Candida albicans = experiment: Minimum inhibitory concentration required for antifungal activity against Candida albicans(16820); assay type: functional

COC(=O)[C@H]1[C@@H]2C[C@@H](O[C@@H]3O[C@H](C)[C@@H](O)[C@H](N)[C@@H]3O)/C=C/C=C/C=C/C=C/C=C/C=C/C=C/[C@H](C)[C@@H](O)[C@@H](C)[C@H](C)OC(=O)C[C@H](O)C[C@H](O)CC[C@@H](O)[C@H](O)C[C@H](O)C[C@](O)(C[C@@H]1O)O2 [AMPHOTERICIN B ME ESTER]
MIC (Cryptococcus neoformans): 8000 µg/mL (≈ 8.53 mM)
MIC (Candida albicans): 8000 µg/mL (≈ 8.53 mM)
